Laboratory results published in patent US10913742B2, “Oxadiazolones as transient receptor potential channel inhibitors” (Genentech, Inc., priority 2017, dated 2021).

molecular target: human TRPA1 (Homo sapiens (Human), UniProt O75762); test: hTRPA1 CHO Ca2+ FLIPR assay (block of cinnamaldehyde induced calcium influx); format: cell-based; conditions: CHO cells expressing TRPA1; 75 uM cinnamaldehyde; Hill coefficient fixed to 1.5; read-out: hTRPA1 (hTRPA1 CHO Ca2+ MAX EVO (IC50))
Experimental: CHO cells expressing TRPA1 were plated into 384-well plates, incubated overnight at 37° C., and loaded with BD calcium indicator dye for 1 hr at 37° C. followed by 15 minutes at room temperature. The assay buffer was Hank's Balanced Salt Solution (HBSS) containing 20 mM HEPES (pH readjusted to 7.4) along with 0.02% BSA.
Following dye load and plate cool down, compounds were added to the cells using FLIPR Tetra. Plates were then incubated with compounds for 20 minutes at room temperature prior to adding agonist.
The IC50 results were fit with a standard Hill function, keeping the Hill coefficient (n) fixed to 1.5. Fixing the Hill coefficient will generally reduce variability of the IC50 determination. The IC50 results were individually examined to make sure the MIN and MAX points were set correctly prior to validation of the results.

Chain of human TRPA1 (O75762 whole entry): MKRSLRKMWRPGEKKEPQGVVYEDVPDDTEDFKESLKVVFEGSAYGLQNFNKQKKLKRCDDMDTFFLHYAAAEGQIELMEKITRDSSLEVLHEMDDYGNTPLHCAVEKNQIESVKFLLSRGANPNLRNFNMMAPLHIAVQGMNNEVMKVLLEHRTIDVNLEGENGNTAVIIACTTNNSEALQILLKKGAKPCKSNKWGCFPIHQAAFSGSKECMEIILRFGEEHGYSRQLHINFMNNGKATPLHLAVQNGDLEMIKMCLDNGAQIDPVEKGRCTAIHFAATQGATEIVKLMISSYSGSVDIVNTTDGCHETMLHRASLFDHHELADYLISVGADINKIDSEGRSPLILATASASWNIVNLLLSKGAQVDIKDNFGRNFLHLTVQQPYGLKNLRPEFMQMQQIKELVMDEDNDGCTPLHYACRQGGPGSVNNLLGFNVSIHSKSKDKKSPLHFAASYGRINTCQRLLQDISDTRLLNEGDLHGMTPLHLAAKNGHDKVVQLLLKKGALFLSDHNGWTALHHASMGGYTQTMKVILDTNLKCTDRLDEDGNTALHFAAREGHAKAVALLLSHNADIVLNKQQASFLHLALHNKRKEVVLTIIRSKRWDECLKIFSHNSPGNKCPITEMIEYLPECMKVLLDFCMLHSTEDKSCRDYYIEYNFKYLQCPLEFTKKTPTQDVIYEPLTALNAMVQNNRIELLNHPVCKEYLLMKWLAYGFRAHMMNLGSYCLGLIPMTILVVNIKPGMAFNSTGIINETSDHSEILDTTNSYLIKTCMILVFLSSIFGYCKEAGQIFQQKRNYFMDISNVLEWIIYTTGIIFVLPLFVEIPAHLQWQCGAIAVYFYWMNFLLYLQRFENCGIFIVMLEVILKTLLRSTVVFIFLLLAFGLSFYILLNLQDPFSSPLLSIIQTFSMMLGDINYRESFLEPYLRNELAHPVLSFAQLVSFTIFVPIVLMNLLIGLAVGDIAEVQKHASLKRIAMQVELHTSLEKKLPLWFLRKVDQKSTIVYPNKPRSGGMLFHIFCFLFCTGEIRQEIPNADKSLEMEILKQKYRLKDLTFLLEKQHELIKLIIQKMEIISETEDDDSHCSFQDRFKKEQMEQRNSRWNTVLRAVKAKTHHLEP

**Q.** For `Cn1cnc2ncn(Cc3nn(CCc4ccc(Cl)cc4)c(=O)o3)c2c1=O` [compound 26, 7-([4-[2-(4-chlorophenyl)ethyl]-5-oxo-4,5-dihydro-1,3,4-oxadiazol-2-yl]methyl)-1-methyl-6,7-dihydro-1H-purin-6-one], which IC50 is on record?
**A.** The IC50 was 737 nM.

**Q.** Which IC50 does the source give for `O=c1c2cccc(=O)n2ccn1Cc1nn([C@H]2C[C@H](c3ccc(Cl)cc3)C2)c(=O)o1` [compound 65, trans-2-[[4-[3-(4-chlorophenyl)cyclobutyl]-5-oxo-1,3,4-oxadiazol-2-yl]methyl]pyrido[1,2-a]pyrazine-1,6-dione] here?
**A.** Its IC50 is 21.1 nM.

**Q.** `Cc1csc2ncc(Cc3nn(CCc4ccc(Cl)cc4)c(=O)o3)c(=O)n12` [compound 47, 3-(4-chlorophenethyl)-5-((3-methyl-5-oxo-5H-thiazolo[3,2-a]pyrimidin-6-yl)methyl)-1,3,4-oxadiazol-2(3H)-one] was tested. Which IC50 did it give?
**A.** Its IC50 is 65 nM.

**Q.** How did the IC50 turn out when `Cn1c(=O)ccc2ncn(Cc3nn([C@H]4C[C@H](c5ccc(Cl)cc5)C4)c(=O)o3)c(=O)c21` [compound 83, 3-((4-((trans)-3-(4-chlorophenyl)cyclobutyl)-5-oxo-4,5-dihydro-1,3,4-oxadiazol-2-yl)methyl)-5-methylpyrido[3,2-d]pyrimidine-4,6(3H,5H)-dione] was run?
**A.** Its IC50 is 15.2 nM.

**Q.** How did the IC50 turn out when `Cc1cnnc2ncn(Cc3nn(CCc4ccc(Cl)cc4)c(=O)o3)c(=O)c12` [compound 27, 3-(4-chlorophenethyl)-5-((4-methyl-5-oxopyridazino[3,4-d]pyrimidin-6(5H)-yl)methyl)-1,3,4-oxadiazol-2(3H)-one] was run?
**A.** The IC50 was 49 nM.

**Q.** With `Cn1cnc2ncn(Cc3nn(CCCOc4cccc(F)c4)c(=O)o3)c(=O)c21` [compound 74, 3-[3-(3-fluorophenoxy)propyl]-5-[(7-methyl-6-oxo-purin-1-yl)methyl]-1,3,4-oxadiazol-2-one] as the compound, how does the IC50 read?
**A.** Its IC50 is 77.5 nM.

**Q.** How did the IC50 turn out when `Cc1ccc(=O)n2ccn(Cc3nn([C@H]4C[C@H](c5ccc(Cl)cc5)C4)c(=O)o3)c(=O)c12` [compound 58, 2-[[4-[3-(4-chlorophenyl)cyclobutyl]-5-oxo-1,3,4-oxadiazol-2-yl]methyl]-9-methyl-pyrido[1,2-a]pyrazine-1,6-dione] was run?
**A.** The IC50 was 40.3 nM.

**Q.** How did the IC50 turn out when `Cc1cnc(Cl)c2ncn(Cc3nn(CCc4ccc(Cl)cc4)c(=O)o3)c(=O)c12` [compound 40, 5-((8-chloro-5-methyl-4-oxopyrido[3,4-d]pyrimidin-3(4H)-yl)methyl)-3-(4-chlorophenethyl)-1,3,4-oxadiazol-2(3H)-one] was run?
**A.** The IC50 was 18 nM.

**Q.** With `Cn1cnc2ncn(Cc3nn(C[C@H](F)c4ccc(Cl)cc4)c(=O)o3)c(=O)c21` [compound 14, (R)-3-(2-(4-chlorophenyl)-2-fluoroethyl)-5-((7-methyl-6-oxo-6H-purin-1(7H)-yl)methyl)-1,3,4-oxadiazol-2(3H)-one] as the compound, how does the IC50 read?
**A.** Its IC50 is 34 nM.

**Q.** Which IC50 does the source give for `Cn1cnc2ncn(Cc3nn([C@@H]4CC[C@@H](c5cccc(Cl)c5)C4)c(=O)o3)c(=O)c21` (racemic) [compound 101, 5-[(7-methyl-6-oxo-purin-1-yl)methyl]-3-[rac-(1R,3R)-3-(3-chlorophenyl)cyclopentyl]-1,3,4-oxadiazol-2-one] here?
**A.** The IC50 was 36.1 nM.

**Q.** How did the IC50 turn out when `Cn1cnc2ncn(Cc3nn(CCc4ccccc4)c(=O)o3)c(=O)c21` [compound 4, 5-((7-methyl-6-oxo-6H-purin-1(7H)-yl)methyl)-3-phenethyl-1,3,4-oxadiazol-2(3H)-one] was run?
**A.** Its IC50 is 1060 nM.

**Q.** How did the IC50 turn out when `CN(C)c1ccc(CCn2nc(Cn3cnc4ncn(C)c4c3=O)oc2=O)cc1` [compound 17, 3-(4-(dimethylamino)phenethyl)-5-((7-methyl-6-oxo-6H-purin-1(7H)-yl)methyl)-1,3,4-oxadiazol-2(3H)-one] was run?
**A.** Its IC50 is 164 nM.

**Q.** With `Cc1ccnc2ncn(Cc3nn([C@H]4C[C@@](F)(c5ccc(C(F)(F)F)cc5)C4)c(=O)o3)c(=O)c12` [compound 99, 3-[3-fluoro-3-[4-(trifluoromethyl)phenyl]cyclobutyl]-5-[(5-methyl-4-oxo-pyrido[2,3-d]pyrimidin-3 yl)methyl]-1,3,4-oxadiazol-2-one] as the compound, how does the IC50 read?
**A.** Its IC50 is 57.3 nM.

**Q.** With `Cn1ccc2cc(CCn3nc(Cn4cnc5ncn(C)c5c4=O)oc3=O)ccc21` [compound 29, 3-[2-(1-methylindol-5-yl)ethyl]-5-[(7-methyl-6-oxo-purin-1-yl)methyl]-1,3,4-oxadiazol-2-one] as the compound, how does the IC50 read?
**A.** The IC50 was 87 nM.

**Q.** With `Cn1cnc2ncn(Cc3nn([C@H]4C[C@H](c5ccc6ccccc6c5)C4)c(=O)o3)c(=O)c21` [compound 113, 5-[(7-methyl-6-oxo-purin-1-yl)methyl]-3-[3-(2-naphthyl)cyclobutyl]-1,3,4-oxadiazol-2-one] as the compound, how does the IC50 read?
**A.** The IC50 was 17.8 nM.

**Q.** `Cn1cnc2ncn(Cc3nn(CCc4cccc(-c5ccccc5)c4)c(=O)o3)c(=O)c21` [compound 24, 7-methyl-1-([5-oxo-4-[2-(3-phenylphenyl)ethyl]-4,5-dihydro-1,3,4-oxadiazol-2-yl]methyl)-6,7-dihydro-1H-purin-6-one] was tested. Which IC50 did it give?
**A.** The IC50 was 338 nM.

**Q.** How did the IC50 turn out when `Cn1cnc2ncn(Cc3nn(CCc4ccc5ccc(C#N)cc5c4)c(=O)o3)c(=O)c21` [compound 36, 7-[2-[5-[(7-methyl-6-oxo-purin-1-yl)methyl]-2-oxo-1,3,4-oxadiazol-3-yl]ethyl]naphthalene-2-carbonitrile] was run?
**A.** The IC50 was 120 nM.

**Q.** `Cn1cnc2c(C#N)nn(Cc3nn(CCc4ccc(OC(F)F)cc4)c(=O)o3)c2c1=O` [compound 32, 1-[(4-[2-[4-(difluoromethoxy)phenyl]ethyl]-5-oxo-4,5-dihydro-1,3,4-oxadiazol-2-yl)methyl]-6-methyl-7-oxo-1H,6H,7H-pyrazolo[4,3-d]pyrimidine-3-carbonitrile] was tested. Which IC50 did it give?
**A.** The IC50 was 36 nM.

**Q.** Which IC50 does the source give for `Cn1cnc2ncn(Cc3nn(C[C@@H](F)c4ccc5ccccc5c4)c(=O)o3)c(=O)c21` [compound 37, 5-[(7-methyl-6-oxo-purin-1-yl)methyl]-3-[(2S)-2-fluoro-2-(2-naphthyl)ethyl]-1,3,4-oxadiazol-2-one] here?
**A.** The IC50 was 332 nM.

**Q.** `COc1ccc(CCn2nc(Cn3cnc4ncn(C)c4c3=O)oc2=O)cc1` [compound 11, 3-(4-methoxyphenethyl)-5-((7-methyl-6-oxo-6H-purin-1(7H)-yl)methyl)-1,3,4-oxadiazol-2(3H)-one] was tested. Which IC50 did it give?
**A.** Its IC50 is 278 nM.

**Q.** `Cc1ncnc2ncn(Cc3nn(CCc4ccc(Cl)cc4)c(=O)o3)c(=O)c12` [compound 46, 3-(4-chlorophenethyl)-5-((5-methyl-4-oxopyrimido[4,5-d]pyrimidin-3(4H)-yl)methyl)-1,3,4-oxadiazol-2(3H)-one] was tested. Which IC50 did it give?
**A.** The IC50 was 107 nM.

**Q.** `Cc1ccnc2ncn(Cc3nn([C@H]4C[C@H](c5ccc6ncccc6c5)C4)c(=O)o3)c(=O)c12` [compound 66, 5-[(5-methyl-4-oxo-pyrido[2,3-d]pyrimidin-3-yl)methyl]-3-[3-(6-quinolyl)cyclobutyl]-1,3,4-oxadiazol-2-one] was tested. Which IC50 did it give?
**A.** Its IC50 is 12.5 nM.

**Q.** With `Cn1cnc2ncn(Cc3nn(CCc4ccc(-c5ccccc5)cc4)c(=O)o3)c(=O)c21` [compound 55, 5-[(7-methyl-6-oxo-purin-1-yl)methyl]-3-[2-(4-phenylphenyl)ethyl]-1,3,4-oxadiazol-2-one] as the compound, how does the IC50 read?
**A.** The IC50 was 251 nM.

**Q.** How did the IC50 turn out when `Cn1cnc2ncn(Cc3nn([C@@H]4CC[C@@H](c5ccc(Cl)cc5)C4)c(=O)o3)c(=O)c21` [compound 100, 5-[(7-methyl-6-oxo-purin-1-yl)methyl]-3-[(1R,3R)-3-(4-chlorophenyl)cyclopentyl]-1,3,4-oxadiazol-2-one] was run?
**A.** The IC50 was 9.59 nM.

**Q.** `Cc1ccnc2ncn(Cc3nn(C[C@H](F)c4ccc(OC(F)F)cc4)c(=O)o3)c(=O)c12` (racemic) [compound 80, 5-[(5-methyl-4-oxo-pyrido[2,3-d]pyrimidin-3-yl)methyl]-3-[rac-(2R)-2-[4-(difluoromethoxy)phenyl]-2-fluoro-ethyl]-1,3,4-oxadiazol-2-one] was tested. Which IC50 did it give?
**A.** Its IC50 is 11.9 nM.

**Q.** Which IC50 does the source give for `Cc1ccnc2ncn(Cc3nn([C@H]4C[C@H](c5ccc(C#N)cc5)C4)c(=O)o3)c(=O)c12` [compound 79, 4-[3-[5-[(5-methyl-4-oxo-pyrido[2,3-d]pyrimidin-3-yl)methyl]-2-oxo-1,3,4-oxadiazol-3-yl]cyclobutyl]benzonitrile] here?
**A.** The IC50 was 2.58 nM.

**Q.** `Cc1ccnc2ncn(Cc3nn(CCc4ccc(C#N)cc4)c(=O)o3)c(=O)c12` [compound 8, 4-[2-[5-[(5-methyl-4-oxo-pyrido[2,3-d]pyrimidin-3-yl)methyl]-2-oxo-1,3,4-oxadiazol-3-yl]ethyl]benzonitrile] was tested. Which IC50 did it give?
**A.** The IC50 was 166 nM.

**Q.** For `Cn1cnc2ncn(Cc3nn(CCc4ccc(C(F)F)cc4)c(=O)o3)c(=O)c21` [compound 18, 3-(4-(difluoromethyl)phenethyl)-5-((7-methyl-6-oxo-6H-purin-1(7H)-yl)methyl)-1,3,4-oxadiazol-2(3H)-one], which IC50 is on record?
**A.** Its IC50 is 509 nM.

**Q.** For `Cc1cnc(C#N)c2ncn(Cc3nn(CCc4ccc(Cl)cc4)c(=O)o3)c(=O)c12` [compound 43], which IC50 is on record?
**A.** The IC50 was 18 nM.

**Q.** `Cc1ccnc2ncn(Cc3nn([C@H]4C[C@](F)(c5ccc(F)cc5)C4)c(=O)o3)c(=O)c12` [compound 96, 3-[3-fluoro-3-(4-fluorophenyl)cyclobutyl]-5-[(5-methyl-4-oxo-pyrido[2,3-d]pyrimidin-3-yl)methyl]-1,3,4-oxadiazol-2-one] was tested. Which IC50 did it give?
**A.** Its IC50 is 18 nM.

**Q.** How did the IC50 turn out when `Cn1cnc2ncn(Cc3nn(CCc4ccc(OC(F)(F)F)cc4)c(=O)o3)c(=O)c21` [compound 10, 5-((7-methyl-6-oxo-6H-purin-1(7H)-yl)methyl)-3-(4-(trifluoromethoxy)phenethyl)-1,3,4-oxadiazol-2(3H)-one] was run?
**A.** The IC50 was 86 nM.

**Q.** For `Cn1cnc2ncn(Cc3nn(CCc4ccc(Br)cc4)c(=O)o3)c(=O)c21` [compound 3, 3-(4-bromophenethyl)-5-((7-methyl-6-oxo-6H-purin-1(7H)-yl)methyl)-1,3,4-oxadiazol-2(3H)-one], which IC50 is on record?
**A.** The IC50 was 44 nM.

**Q.** `Cc1ccnc2ncn(Cc3nn([C@H]4C[C@H](c5ccc(F)cc5)C4)c(=O)o3)c(=O)c12` [compound 88, 3-[3-(4-fluorophenyl)cyclobutyl]-5-[(5-methyl-4-oxo-pyrido[2,3-d]pyrimidin-3-yl)methyl]-1,3,4-oxadiazol-2-one] was tested. Which IC50 did it give?
**A.** Its IC50 is 5.76 nM.
